{"source": "patent US11607422B2", "about": "“Uttroside B and derivatives thereof as therapeutics for hepatocellular carcinoma” (Rajiv Gandhi Centre for Biotechnology, an Autonomous …, priority 2016, dated 2023)", "key": {"LC3 in HepG2 cells": {"tested_on": "LC3 in HepG2 cells", "assay": "Autophagy flux (LC3I to LC3II conversion) with Bafilomycin", "assay_type": "cell-based, human", "conditions": "Uttroside B 500 nM + Bafilomycin 10 nM, 24 h", "procedure": "Concentration dependent effect of BafilomycinAl on the endogenous conversion of LC3I to LC3II in HepG2 cells. Cells were treated with Bafilomycin Al at different concentration and the whole cell lysate was resolved on a 15% gel and immunoblotted against LC3 antibody. Uttroside B is an autophagy inducer in HepG2 cells as analysed by autophagy flux using Bafilomycin Al. […] The increase in LC3 II could not be considered as a fool proof of autophagic induction because a blockage in any step leading from autophagosome maturation to its fusion with lysosomes could cause its accumulation. So, the effect of Uttroside B in HepG2 cells were analyzed for autophagy flux, a more accurate read out of autophagy on co-treatment with Bafilomycin, an autophagy-lysosome inhibitor. Bafilomycin A, blocks autophagy by blocking the fusion of autophagosome with lysosome which cause the accumulation of autophagosome or LC3. First, the concentration of Bafilomycin Al required for saturating the blockage of autophagy-lysosome fusion was standardized. The efficacy of Bafilomycin Al, in terms of blocking autophagosome degradation in HepG2, was found peaked at 10 nM, beyond which no further accumulation of LC3 II was noted, which matched with the earlier reports.^32,37,38 […]"}, "[1]": {"tested_on": "caspases 8, 9 & 7 and PARP in HepG2 cells", "assay": "Western blot of caspase activation and PARP cleavage in HepG2 cells", "assay_type": "cell-based, human", "procedure": "FIGS. 3A-3F show Uttroside B induces caspase-dependent apoptosis leading to PARP cleavage in HepG2 cells while being independent of cell cycle. FIGS. 3A-3E are images of Western blots showing caspase activation in HepG2 cells. Whole-cell extracts were prepared after treating HepG2 cells with indicated concentrations of Uttroside B for 48 h, the whole cell lysate was resolved on a 15% gel and subjected to western blotting using antibodies against the caspases 8, 9 & 7 detected by ECL. HepG2 cells were treated with Uttroside B for 48 h at different concentrations and the whole cell lysate was resolved on a 10% gel, immunoblotted against anti-PARP and detected by ECL. […] HepG2 cells were treated with Uttroside B for 48 h, stained with propidium iodide and the cell cycle analysis was done using fluorescence activated cell sorter. Curcumin 25 μM (24 h) is used as positive control.\nWestern blot analysis. Approximately 0.5×10^6 cells were grown on 60 mm culture plates and exposed to drugs as indicated for the desired time. The cells were then scraped out, washed in ice cold 1× PBS and pelleted down at 13000 rpm for 2 min. The pelleted cells were suspended in 150 μL of ice-cold whole cell lysis buffer[(20 mMTris of pH 7.4, 250 mM NaCl, 2 mM EDTA, 0.1% Triton, 1 mM DTT (1,4-dithiothreitol), 0.5 mM PMSF, 4 mM sodium orthovanadate, aprotinin (5 mg m/L) and leupeptin (5 mg m/L)] and kept in ice for 30 min, with intermittent vortexing every 5 min. After incubation, the lysate was centrifuged at 13000 rpm for 10 min at 4° C. and the supernatant was collected. The total protein content in the lysate was estimated by Bradford's method, and was then denatured by boiling with 5× loading dye before separating the proteins by SDSpolyacrylamidegel electrophoresis (SDS-PAGE). Following electrophoresis, the polyacrylamide gel and a PVDF membrane were equilibrated with Towbins buffer (1 L, 25 mM Tris, 192 mM glycine, 20% (v/v) methanol (pH 8.3) for 15-30 min and the separated proteins were electro-transferred to PVDF membrane (Hybond-P, GE Healthcare Life science) using Bio-Rad Mini PROTEAN III wet blot apparatus at 100 V for 2 h at cold conditions. After the transfer, the membrane was rinsed with TBS-T (20 mM Tris pH 7.5, 150 mM NaCl, 0.1% Tween 20) buffer and stained with Ponceau-S to ensure uniform transfer. After washing off the Ponceau stain with TBST, the membrane was exposed to 5% fat free milk in TBST buffer for 1 h at room temperature to block the nonspecific binding of antibodies, followed by overnight incubation with the primary antibody [1:1000 dilution] in 3% BSA in TBST buffer at 4° C. […]"}, "[2]": {"tested_on": "autophagy related proteins in Hep3B cells", "assay": "Western blot of autophagy related proteins in Hep3B cells", "assay_type": "cell-based", "conditions": "time dependent", "procedure": "Western blot analysis. Approximately 0.5×10^6 cells were grown on 60 mm culture plates and exposed to drugs as indicated for the desired time. The cells were then scraped out, washed in ice cold 1× PBS and pelleted down at 13000 rpm for 2 min. The pelleted cells were suspended in 150 μL of ice-cold whole cell lysis buffer[(20 mMTris of pH 7.4, 250 mM NaCl, 2 mM EDTA, 0.1% Triton, 1 mM DTT (1,4-dithiothreitol), 0.5 mM PMSF, 4 mM sodium orthovanadate, aprotinin (5 mg m/L) and leupeptin (5 mg m/L)] and kept in ice for 30 min, with intermittent vortexing every 5 min. After incubation, the lysate was centrifuged at 13000 rpm for 10 min at 4° C. and the supernatant was collected. The total protein content in the lysate was estimated by Bradford's method, and was then denatured by boiling with 5× loading dye before separating the proteins by SDSpolyacrylamidegel electrophoresis (SDS-PAGE). […]"}, "[3]": {"conditions": "HepG2, 48 h, concentration dependent"}}, "data": [{"smiles": "C[C@H](CC[C@@]1(O)O[C@H]2C[C@H]3[C@@H]4CC[C@H]5C[C@@H](O[C@@H]6O[C@H](CO)[C@H](O[C@@H]7O[C@H](CO)[C@@H](O)[C@H](O[C@@H]8OC[C@@H](O)[C@H](O)[C@H]8O)[C@H]7O[C@@H]7O[C@H](CO)[C@@H](O)[C@H](O)[C@H]7O)[C@H](O)[C@H]6O)CC[C@]5(C)[C@H]4CC[C@]3(C)[C@H]2[C@@H]1C)CO[C@@H]1O[C@H](CO)[C@@H](O)[C@H](O)[C@H]1O", "note": "[Uttroside B]", "values": [{"measurement": "LC3II on co-treatment with Bafilomycin", "setting": "LC3 in HepG2 cells", "value": "surplus accumulation of LC3II"}, {"measurement": "cleavage of PARP", "setting": "[1]; HepG2, 48 h", "value": "strong cleavage of the mother band to its daughter bands"}, {"measurement": "cleavage of procaspase 7", "setting": "[1]; [3]", "value": "procaspase 7 into its active fragment (p-20) were also enhanced"}, {"measurement": "cleavage of procaspase 8", "setting": "[1]; [3]", "value": "increase in the cleavage of procaspase 8 to its active fragments"}, {"measurement": "cleavage of procaspase 9", "setting": "[1]; HepG2, Western blot", "value": "time-dependent and concentration-dependent increase in the cleavage of procaspase 9"}, {"measurement": "expression of autophagy related proteins, Hep3B", "setting": "[2]", "value": "induced Atg5, Atg7 and LC3 in a time dependent manner"}]}]}
